Experimental data taken from patent US20100075907A1, “NEUROMEDIN U RECEPTOR AGONISTS AND USES THEREOF” (priority 2006, published 2010).
Starred links: 1 amine or outer side, 2 acyl side, 3 side chain; linkers in the order of their positions; H or OH if unused. Non-standard residues stand in square brackets, D forms with d. Residues, ends and D or L forms follow the SMILES beside them. *: point of attachment. X2 = CCN1C(=O)CC(SC[C@H](NC(C)=O)C(=O)NCCCOCCOCCOCCCN*)C1=O; Succinimide(1-Et,3-yl) = CCN1C(=O)CC(*)C1=O; Palmitoyl = CCCCCCCCCCCCCCCC(=O)*; Suc = O=C(CCC(=O)[*:2])[*:1]

Key:
Type in all cases: cell-based
Conditions in all cases: for EC50: FLIPR
mouse NMUR2 = mouse NMUR2 (Mus musculus, UniProt Q8BZ39); test: FLIPR calcium mobilization assay, mouse NMUR2; set-up: expressed in transfected cells; host or cells: FLP-In CHO or HEK-293 FLP-In cells (pcDNA5)
Chain of mouse NMUR2 (Q8BZ39 whole entry): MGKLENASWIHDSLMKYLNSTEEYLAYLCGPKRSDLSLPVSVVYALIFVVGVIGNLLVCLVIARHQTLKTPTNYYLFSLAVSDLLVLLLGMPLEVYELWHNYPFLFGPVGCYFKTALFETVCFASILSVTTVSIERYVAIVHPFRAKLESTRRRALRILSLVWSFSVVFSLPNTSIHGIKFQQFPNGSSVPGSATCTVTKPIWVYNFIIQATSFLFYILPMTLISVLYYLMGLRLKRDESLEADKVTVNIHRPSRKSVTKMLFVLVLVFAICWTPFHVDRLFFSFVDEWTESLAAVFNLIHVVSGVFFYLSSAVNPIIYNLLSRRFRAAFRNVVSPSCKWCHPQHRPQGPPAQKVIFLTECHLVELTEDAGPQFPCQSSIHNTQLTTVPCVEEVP
Description: (§1) Human, mouse or rat cDNAs encoding NMUR1 or NMUR2 (as described in Howard et al. Nature 406: 70-74 (2000) were subcloned in pcDNA5 (Invitrogen) and transfected into FLP-In CHO cells and HEK-293 FLP-In cells purchased from Invitrogen (Carlsbad, Calif.) using lipofectamine (Invitrogen). The Flp-In system allows integration and expression of a particular gene of interest at a specific genomic location utilizing the Flp recombinase from yeast. The transfected cells were selected by growth in medium containing 200 μg/mL hygromycin (Invitrogen). Populations were frozen at early passage numbers, and these stocks were used for further studies. Stable clones that expressed the mRNAs were identified functionally by FLIPR as well as by RT-PCR. […] Two different rodent NMUR1 cell lines were thus generated: one with the codon as predicted from the genomic databases and another cell line with an engineered methionine (ATG) as the start codon. Additionally, stable cell lines expressing the human receptors were generated in HEK-293/aeq17 cells which stably express the aequorin gene under the CMV promoter. The human NMUR2 cDNA was cloned into pcDNA3.1 and human NMUR1 was subcloned into pIRES-puro (Clontech, Mountain View, Calif.), after transfection cells were selected in media containing G418 and either hygromycin (NMUR2) or puromycin (NMUR1).
(§2) The NMU receptors signal primarily through Gαq/11 proteins; therefore calcium mobilization assays can be utilized for functional activity.
(§3) Stable cell lines expressing human and or rodent NMUR1 or human NMUR2 receptors were plated at a density of 12,000 cells per well overnight on poly-lysine coated 384-well black-walled plates. The following day, the media was removed from the plates and the cells were subsequently loaded with Fluo-3 (Molecular Probes), a calcium sensitive dye, diluted in FLIPR buffer (1× Hank's buffered saline containing 20 mM HEPES, 0.1% BSA, 2.5 mM probenecid (Sigma) and 1.6 mM TR40). All reagents are from Invitrogen unless otherwise noted. Peptide stocks were resuspended in DMSO at a stock concentration of 2 mM and diluted in FLIPR buffer on the day of the experiment to a 4 μM working stock solution.
(§4) After a 90 minute incubation at room-temperature, cell plates were loaded onto a FLIPR (Molecular Devices) to monitor cellular fluorescence (excitation=488 nm; emission=540 nm) before and after compound/peptide addition. Eight to twelve point dose responses were tested on NMUR-expressing cell lines using FLIPR with 1 μM peptide as the highest dose. The response after peptide addition was taken as the maximum fluorescence units minus the fluorescence immediately prior to stimulation for each well. EC50 values were calculated using GraphPad Prism (San Diego, Calif.) software.
(§5) In vitro responses of Neuromedin U receptor agonists (NMU1 to NMU25) in the FLIPR assay for human (Table 3), mouse (Table 4) and rat (Table 5) NMUR1 and NMUR2. EC50s are reported in nM values. Percent activity refers to the maximum response at 1 μM compared to the hNMU-25 response at the same concentration. NT=not tested.

rat NMUR2 = rat NMUR2 (Rattus norvegicus, UniProt Q9ESQ4); test: FLIPR calcium mobilization assay, rat NMUR2; set-up: expressed in transfected cells; host or cells: FLP-In CHO or HEK-293 FLP-In cells (pcDNA5)
Chain of rat NMUR2 (Q9ESQ4 whole entry): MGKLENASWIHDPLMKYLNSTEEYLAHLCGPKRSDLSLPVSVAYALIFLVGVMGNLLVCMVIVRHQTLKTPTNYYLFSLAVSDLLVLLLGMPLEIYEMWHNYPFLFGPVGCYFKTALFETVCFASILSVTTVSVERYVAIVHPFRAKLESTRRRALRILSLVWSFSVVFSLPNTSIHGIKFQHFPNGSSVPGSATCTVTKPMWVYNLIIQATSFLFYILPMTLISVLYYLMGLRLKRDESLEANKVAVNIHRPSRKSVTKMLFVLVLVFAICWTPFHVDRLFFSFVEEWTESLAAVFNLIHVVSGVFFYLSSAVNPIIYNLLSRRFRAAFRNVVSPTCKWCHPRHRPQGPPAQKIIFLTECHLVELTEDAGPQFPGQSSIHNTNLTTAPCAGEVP
Description: as §1, §2, §3, §4, §5

hNMUR1 = biological target: T1, hNMUR1 (Homo sapiens, UniProt Q9HB89); test: FLIPR calcium mobilization assay, human NMUR1; set-up: expressed in transfected cells; host or cells: FLP-In CHO or HEK-293 FLP-In cells (pcDNA5); HEK-293/aeq17 lines (pIRES-puro) were also made
T1 sequence (Q9HB89 1-426): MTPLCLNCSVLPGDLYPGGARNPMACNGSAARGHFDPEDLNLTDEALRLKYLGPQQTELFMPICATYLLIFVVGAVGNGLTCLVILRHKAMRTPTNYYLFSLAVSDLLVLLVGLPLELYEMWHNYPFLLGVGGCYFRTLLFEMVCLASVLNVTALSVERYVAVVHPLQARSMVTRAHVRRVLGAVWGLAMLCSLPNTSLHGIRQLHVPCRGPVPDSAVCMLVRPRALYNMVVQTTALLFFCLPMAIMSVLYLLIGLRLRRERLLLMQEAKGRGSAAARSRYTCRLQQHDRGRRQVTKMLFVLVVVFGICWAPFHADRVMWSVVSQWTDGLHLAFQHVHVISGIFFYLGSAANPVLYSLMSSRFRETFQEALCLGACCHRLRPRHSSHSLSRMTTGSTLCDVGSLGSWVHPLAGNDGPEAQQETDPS
Description: as §1, §2, §3, §4, §5

[1] = maximum response at 1 μM compared to hNMU-25, mouse NMUR2
[2] = maximum response at 1 μM compared to hNMU-25, rat NMUR2
[3] = maximum response at 1 μM compared to hNMU-25 response at same concentration, human NMUR1

Compound	EC50 (mouse NMUR2; mouse NMUR2) [nM]	IC50 (mouse NMUR2; functional data, mouse R2) [nM]	% Activity (mouse NMUR2; functional, mouse R2, relative to native hNMU responses) [%]	% Activity (mouse NMUR2; [1]) [%]	EC50 (rat NMUR2; rat NMUR2) [nM]	IC50 (rat NMUR2; functional data, rat R2) [nM]	% Activity (rat NMUR2; functional, rat R2, relative to native hNMU responses) [%]	% Activity (rat NMUR2; [2]) [%]	% Activity (hNMUR1; functional, human R1, relative to native hNMU responses) [%]	% Activity (hNMUR1; [3]) [%]	EC50 (hNMUR1; human NMUR1) [nM]
CCN1C(=O)CC(SC[C@H](NC(C)=O)C(=O)N[C@@H](Cc2ccccc2)C(=O)N[C@@H](CCCNC(=N)N)C(=O)N[C@H](C(=O)N[C@@H](CC(=O)O)C(=O)N[C@@H](CCC(=O)O)C(=O)N[C@@H](CCC(=O)O)C(=O)N[C@@H](Cc2ccccc2)C(=O)N[C@@H](CCC(N)=O)C(=O)N[C@@H](CO)C(=O)N2CCC[C@H]2C(=O)N[C@@H](Cc2ccccc2)C(=O)N[C@@H](C)C(=O)N[C@@H](CO)C(=O)N[C@@H](CCC(N)=O)C(=O)N[C@@H](CO)C(=O)N[C@@H](CCCNC(=N)N)C(=O)NCC(=O)N[C@@H](Cc2ccc(O)cc2)C(=O)N[C@@H](Cc2ccccc2)C(=O)N[C@H](C)C(=O)N[C@@H](Cc2c[nH]c3ccccc23)C(=O)N[C@@H](CCCNC(=N)N)C(=O)N2CCC[C@H]2C(=O)N[C@@H](CCCNC(=N)N)C(=O)N[C@@H](CC(N)=O)C(N)=O)C(C)C)C1=O (some centres unmarked) [NMU13] (Ac-C(Succinimide(1-Et,3-yl))FRVDEEFQSPFASQSRGYF[dA]WRPRN-NH2)	> 1000	> 1000	27	0.0	> 1000	> 1000	24	0.0	91	100	–
CCN1C(=O)CC(SC[C@H](NC(C)=O)C(=O)NCCCOCCOCCOCCCNC(=O)CCC(=O)N[C@@H](Cc2ccccc2)C(=O)N[C@@H](CC(C)C)C(=O)N[C@@H](Cc2ccccc2)C(=O)N[C@@H](CCCNC(=N)N)C(=O)N2CCC[C@H]2C(=O)N[C@@H](CCCNC(=N)N)C(=O)N[C@@H](CC(N)=O)C(N)=O)C1=O (some centres unmarked) [NMU15, Ac-C1-Ttds-FLFRPRN-CONH2] ({X2-Suc}-FLFRPRN-NH2)	–	–	–	100	2.2	–	–	100	–	91.5	–
CCN1C(=O)CC(SC[C@H](NC(C)=O)C(=O)N[C@@H](C)C(=O)N[C@@H](CO)C(=O)N[C@@H](CCC(N)=O)C(=O)N[C@@H](CO)C(=O)N[C@@H](CCCNC(=N)N)C(=O)NCC(=O)N[C@@H](Cc2ccc(O)cc2)C(=O)N[C@@H](Cc2ccccc2)C(=O)N[C@@H](CC(C)C)C(=O)N[C@@H](Cc2ccccc2)C(=O)N[C@@H](CCCNC(=N)N)C(=O)N2CCC[C@H]2C(=O)N[C@@H](CCCNC(=N)N)C(=O)N[C@@H](CC(N)=O)C(N)=O)C1=O (some centres unmarked) [NMU17] (Ac-C(Succinimide(1-Et,3-yl))ASQSRGYFLFRPRN-NH2)	–	–	–	100	–	–	–	100	–	100	–
CCN1C(=O)CC(SC[C@H](NC(C)=O)C(=O)N[C@@H](Cc2ccccc2)C(=O)N[C@@H](CCC(N)=O)C(=O)N[C@@H](CO)C(=O)N2CCC[C@H]2C(=O)N[C@@H](Cc2ccccc2)C(=O)N[C@@H](C)C(=O)N[C@@H](CO)C(=O)N[C@@H](CCC(N)=O)C(=O)N[C@@H](CO)C(=O)N[C@@H](CCCNC(=N)N)C(=O)NCC(=O)N[C@@H](Cc2ccc(O)cc2)C(=O)N[C@@H](Cc2ccccc2)C(=O)N[C@@H](CC(C)C)C(=O)N[C@@H](Cc2ccccc2)C(=O)N[C@@H](CCCNC(=N)N)C(=O)N2CCC[C@H]2C(=O)N[C@@H](CCCNC(=N)N)C(=O)N[C@@H](CC(N)=O)C(N)=O)C1=O (some centres unmarked) [NMU19] (Ac-C(Succinimide(1-Et,3-yl))FQSPFASQSRGYFLFRPRN-NH2)	–	–	–	100	–	–	–	100	–	95.9	–
CCN1C(=O)CC(SC[C@H](NC(C)=O)C(=O)N[C@@H](CSC2CC(=O)N(CC)C2=O)C(=O)N[C@@H](Cc2ccccc2)C(=O)N[C@@H](CCCNC(=N)N)C(=O)N[C@H](C(=O)N[C@@H](CC(=O)O)C(=O)N[C@@H](CCC(=O)O)C(=O)N[C@@H](CCC(=O)O)C(=O)N[C@@H](Cc2ccccc2)C(=O)N[C@@H](CCC(N)=O)C(=O)N[C@@H](CO)C(=O)N2CCC[C@H]2C(=O)N[C@@H](Cc2ccccc2)C(=O)N[C@@H](C)C(=O)N[C@@H](CO)C(=O)N[C@@H](CCC(N)=O)C(=O)N[C@@H](CO)C(=O)N[C@@H](CCCNC(=N)N)C(=O)NCC(=O)N[C@@H](Cc2ccc(O)cc2)C(=O)N[C@@H](Cc2ccccc2)C(=O)N[C@@H](CC(C)C)C(=O)N[C@@H](Cc2ccccc2)C(=O)N[C@@H](CCCNC(=N)N)C(=O)N2CCC[C@H]2C(=O)N[C@@H](CCCNC(=N)N)C(=O)N[C@@H](CC(N)=O)C(N)=O)C(C)C)C1=O (some centres unmarked) [NMU22] (Ac-C(Succinimide(1-Et,3-yl))C(Succinimide(1-Et,3-yl))FRVDEEFQSPFASQSRGYFLFRPRN-NH2)	–	–	–	100	–	–	–	98.8	–	95.6	–
CCCCCCCCCCCCCCCC(=O)N[C@@H](CSC1CC(=O)N(CC)C1=O)C(=O)N[C@@H](Cc1ccccc1)C(=O)N[C@@H](CCCNC(=N)N)C(=O)N[C@H](C(=O)N[C@@H](CC(=O)O)C(=O)N[C@@H](CCC(=O)O)C(=O)N[C@@H](CCC(=O)O)C(=O)N[C@@H](Cc1ccccc1)C(=O)N[C@@H](CCC(N)=O)C(=O)N[C@@H](CO)C(=O)N1CCC[C@H]1C(=O)N[C@@H](Cc1ccccc1)C(=O)N[C@@H](C)C(=O)N[C@@H](CO)C(=O)N[C@@H](CCC(N)=O)C(=O)N[C@@H](CO)C(=O)N[C@@H](CCCNC(=N)N)C(=O)NCC(=O)N[C@@H](Cc1ccc(O)cc1)C(=O)N[C@@H](Cc1ccccc1)C(=O)N[C@@H](CC(C)C)C(=O)N[C@@H](Cc1ccccc1)C(=O)N[C@@H](CCCNC(=N)N)C(=O)N1CCC[C@H]1C(=O)N[C@@H](CCCNC(=N)N)C(=O)N[C@@H](CC(N)=O)C(N)=O)C(C)C (some centres unmarked) [NMU24] (Palmitoyl-C(Succinimide(1-Et,3-yl))FRVDEEFQSPFASQSRGYFLFRPRN-NH2)	–	–	–	82.4	–	–	–	52.2	–	34.4	–
Ac-C2FQSPFASQSRGYFLFRPRN-CONH2 ({Ac-C(PEG 40 kDa)}-FQSPFASQSRGYFLFRPRN-NH2; not fully specified; printed as Ac-C2FQSPFASQSRGYFLFRPRN-CONH2) [NMU20, C2 = Cys(PEG)240 kDa]	14.8	–	–	–	16.9	–	–	–	–	–	16.4
Ac-C2FRVDEEFQSPFASQSRGYFLFRPRN-CONH2 [NMU9] ({Ac-C(PEG 40 kDa)}-FRVDEEFQSPFASQSRGYFLFRPRN-NH2) [C2 = Cys(PEG)240 kDa from Nektar (mPEG2-MAL-40 k)]	19	–	–	–	4.5	–	–	–	–	94.4	50.6
Ac-C4-C4-FRVDEEFQSPFASQSRGYFLFRPRN-CONH2 ({Ac-C(PEG 20 kDa)-C(PEG 20 kDa)}-FRVDEEFQSPFASQSRGYFLFRPRN-NH2) [NMU23, C4 = Cys(PEG)20 kDa]	21.3	–	–	–	47.4	–	–	90.2	–	66.9	300
